Entries after “also recorded” stand apart in the source; their conditions may differ.
Columns and labels:
subjects with RRMS [1] = assay: ALLEGRO sub-study: evolution of GdE and new T2 lesions into permanent black holes (PBH), frequent MRI group; type: in vivo, human; settings: for Number of PBH from GdE lesions, adjusted mean (SE) / PBH from GdE lesions, RR (risk ratio) laquinimod vs placebo / Number of PBH from active lesions, adjusted mean (SE) / Number of PBH from new T2 lesions, mean (SE) / PBH from active lesions, RR (risk ratio) laquinimod vs placebo / PBH from new T2 lesions, RR (risk ratio) laquinimod vs placebo: 0.6 mg
Description: A subset of patients in ALLEGRO comprised a “frequent MRI” group for PBH analysis; these patients had MRIs taken at months 3, 6, 12 and 24. Patients in the frequent MRI group with active lesions at baseline or during the study were included in the PBH analysis. A negative binomial regression analysis was used to estimate the mean number of PBH at months 12 and 24 that evolved from GdE and new T2 lesions detected at various time points in the study in the “frequent MRI” subgroup.

[2] = system: subject afflicted by tremor or spasticity; assay: Example 3: oral laquinimod in treating tremor and spasticity; type: in vivo
Description: A composition comprising laquinimod as described herein is administered to a subject afflicted by tremor. […] A composition comprising laquinimod as described herein is administered to a subject afflicted by tremor. […] A composition comprising laquinimod as described herein is administered to a subject afflicted by spasticity. […] A composition comprising laquinimod as described herein is administered to a subject afflicted by tremor.

subjects with RRMS [3] = assay: ALLEGRO sub-study: MT MRI, magnetization transfer ratio (MTR) of NABT, WM, GM and T2 lesions; type: in vivo, human; settings: for Average MTR of T2 lesions, LS mean (SE) change / GM MTR, LS mean (SE) change / NABT MTR, LS mean (SE) change / WM MTR, LS mean (SE) change: 0.6 mg; for Average MTR of T2 lesions, treatment difference (95% CI) / GM MTR, treatment difference (95% CI) / NABT MTR, treatment difference (95% CI) / WM MTR, treatment difference (95% CI): laquinimod 0.6 mg vs placebo
Description: • 1. Frequent MRI (selected countries and sites only): The cumulative number of T1-Gd enhancing lesions taken from scans obtained at months 0, 3, 6, 12, and 24, and in case the study is be extended, 30. Additional MRIs for the ancillary study are performed at months 3 and 6. • 2. Magnetization Transfer (MT) (selected countries and sites only): the change from baseline to month 12 and 24/30 months in magnetization transfer MRI. MT was assessed at months 0 (baseline), 12 and 24 (termination/early discontinuation). In case of the 6 months extended study, the last MT was performed at month 30 (termination/early discontinuation of the extended study) instead of month 24. • 3. Proton MR Spectroscopy (^1H-MRS) (selected countries and sites only): Change from baseline to 24/30 in ^1H-MRS metabolites. ^1H-MRS was assessed at months 0 (baseline), and 24 (termination/early discontinuation). In case of the 6 months extended study, the last ^1H-MRS was performed at month 30 (termination/early discontinuation of the extended study) instead of month 24. • 4. Pharmacogenetic (PGx) assessment: Blood samples for PGx parameters were collected from all subjects at screening. • 5. Brain atrophy, as defined by the percentage of change from one scan to the subsequent scan in brain volume, in addition to the measurements done in the main study (Frequent MRI Cohort). • 6. Whole blood and serum samples (selected countries and sites only) were collected for evaluation of the immunological response to treatment with laquinimod and further investigation of the potential mechanism of action. Whole blood samples were collected at months: 0, 1, 3, 6, 12 and 24. Serum samples were collected at month: 0, 1, 6, 12 and 24 (even if the study is extended to month 30). • 7. Relationship between PGx and response to laquinimod in terms of clinical, MRI and safety parameters. Patients with valid baseline and month 12, and/or month 24 MT MRI assessments were included in the analysis. Least square (LS) mean changes from baseline MTR in NABT, WM, GM and T2-lesions at months 12 and 24, and between months 12 an 24, were evaluated using a MMRM analysis.

[4] = PBH at Month 12 from lesions at Baseline
[5] = PBH at Month 12 from lesions at Month 3
[6] = PBH at Month 12 from lesions at Months 3 and 6
[7] = PBH at Month 24 from All lesions
[8] = PBH at Month 24 from lesions at Baseline
[9] = PBH at Month 24 from lesions at Month 3
[10] = PBH at Month 24 from lesions at Months 3, 6, and 12

Structure (SMILES): CCN(C(=O)c1c(O)c2c(Cl)cccc2n(C)c1=O)c1ccccc1 [Laquinimod]
- Number of PBH from GdE lesions, adjusted mean (SE) (subjects with RRMS [1]; [4]): 0.5 (0.16) [26]
- PBH from GdE lesions, RR (risk ratio) laquinimod vs placebo (subjects with RRMS [1]; [4]): 0.53
- Number of PBH from GdE lesions, adjusted mean (SE) (subjects with RRMS [1]; [5]): 0.6 (0.25) [14]
- Number of PBH from active lesions, adjusted mean (SE) (subjects with RRMS [1]; [5]): 0.41 (0.14) [29]
- Number of PBH from new T2 lesions, mean (SE) (subjects with RRMS [1]; [5]): 0.40 (0.15) [28]
- PBH from GdE lesions, RR (risk ratio) laquinimod vs placebo (subjects with RRMS [1]; [5]): 0.58
- PBH from active lesions, RR (risk ratio) laquinimod vs placebo (subjects with RRMS [1]; [5]): 0.44
- PBH from new T2 lesions, RR (risk ratio) laquinimod vs placebo (subjects with RRMS [1]; [5]): 0.52
- Number of PBH from GdE lesions, adjusted mean (SE) (subjects with RRMS [1]; [6]): 0.6 (0.18) [25]
- Number of PBH from active lesions, adjusted mean (SE) (subjects with RRMS [1]; [6]): 0.59 (0.15) [41]
- Number of PBH from new T2 lesions, mean (SE) (subjects with RRMS [1]; [6]): 0.57 (0.16) [40]
- PBH from GdE lesions, RR (risk ratio) laquinimod vs placebo (subjects with RRMS [1]; [6]): 0.45
- PBH from active lesions, RR (risk ratio) laquinimod vs placebo (subjects with RRMS [1]; [6]): 0.42
- PBH from new T2 lesions, RR (risk ratio) laquinimod vs placebo (subjects with RRMS [1]; [6]): 0.48
- Number of PBH from GdE lesions, adjusted mean (SE) (subjects with RRMS [1]; [7]): 1.0 (0.20) [41]
- Number of PBH from active lesions, adjusted mean (SE) (subjects with RRMS [1]; [7]): 1.20 (0.19) [55]
- Number of PBH from new T2 lesions, mean (SE) (subjects with RRMS [1]; [7]): 0.87 (0.17) [51]
- PBH from GdE lesions, RR (risk ratio) laquinimod vs placebo (subjects with RRMS [1]; [7]): 0.45
- PBH from active lesions, RR (risk ratio) laquinimod vs placebo (subjects with RRMS [1]; [7]): 0.51
- PBH from new T2 lesions, RR (risk ratio) laquinimod vs placebo (subjects with RRMS [1]; [7]): 0.52
- Number of PBH from GdE lesions, adjusted mean (SE) (subjects with RRMS [1]; [8]): 0.6 (0.17) [26]
- PBH from GdE lesions, RR (risk ratio) laquinimod vs placebo (subjects with RRMS [1]; [8]): 0.65
- Number of PBH from GdE lesions, adjusted mean (SE) (subjects with RRMS [1]; [9]): 0.6 (0.24) [14]
- Number of PBH from active lesions, adjusted mean (SE) (subjects with RRMS [1]; [9]): 0.47 (0.14) [29]
- Number of PBH from new T2 lesions, mean (SE) (subjects with RRMS [1]; [9]): 0.43 (0.14) [28]
- PBH from GdE lesions, RR (risk ratio) laquinimod vs placebo (subjects with RRMS [1]; [9]): 0.55
- PBH from active lesions, RR (risk ratio) laquinimod vs placebo (subjects with RRMS [1]; [9]): 0.45
- PBH from new T2 lesions, RR (risk ratio) laquinimod vs placebo (subjects with RRMS [1]; [9]): 0.50
- Number of PBH from GdE lesions, adjusted mean (SE) (subjects with RRMS [1]; [10]): 0.7 (0.19) [32]
- Number of PBH from active lesions, adjusted mean (SE) (subjects with RRMS [1]; [10]): 0.95 (0.18) [52]
- Number of PBH from new T2 lesions, mean (SE) (subjects with RRMS [1]; [10]): 0.87 (0.17) [51]
- PBH from GdE lesions, RR (risk ratio) laquinimod vs placebo (subjects with RRMS [1]; [10]): 0.44
- PBH from active lesions, RR (risk ratio) laquinimod vs placebo (subjects with RRMS [1]; [10]): 0.50
- PBH from new T2 lesions, RR (risk ratio) laquinimod vs placebo (subjects with RRMS [1]; [10]): 0.52
- Number of PBH evolved from GdE lesions present at baseline, placebo vs laquinimod (subjects with RRMS [1]; at 12 and 24 months): no difference
- Spasticity in the subject ([2]; subject afflicted by spasticity): effective to inhibit spasticity; also recorded: effective to reduce spasticity
- Tremor in the subject ([2]; subject afflicted by tremor): effective to inhibit tremor; also recorded: effective to reduce tremor
- Average MTR of T2 lesions, LS mean (SE) change (subjects with RRMS [3]; Baseline to Month 12): 0.39 (0.25)
- GM MTR, LS mean (SE) change (subjects with RRMS [3]; Baseline to Month 12): 0.30 (0.13)
- NABT MTR, LS mean (SE) change (subjects with RRMS [3]; Baseline to Month 12): 0.31 (0.12)
- WM MTR, LS mean (SE) change (subjects with RRMS [3]; Baseline to Month 12): 0.32 (0.13)
- Average MTR of T2 lesions, treatment difference (95% CI) (subjects with RRMS [3]; Baseline to Month 12): 0.38 (−0.26, 1.01) p = 0.239
- GM MTR, treatment difference (95% CI) (subjects with RRMS [3]; Baseline to Month 12): 0.41 (0.08, 0.74) p = 0.014
- NABT MTR, treatment difference (95% CI) (subjects with RRMS [3]; Baseline to Month 12): 0.40 (0.09, 0.71) p = 0.013
- WM MTR, treatment difference (95% CI) (subjects with RRMS [3]; Baseline to Month 12): 0.40 (0.09, 0.72) p = 0.013
- Average MTR of T2 lesions, LS mean (SE) change (subjects with RRMS [3]; Baseline to Month 24): 0.46 (0.29)
- GM MTR, LS mean (SE) change (subjects with RRMS [3]; Baseline to Month 24): 0.14 (0.16)
- NABT MTR, LS mean (SE) change (subjects with RRMS [3]; Baseline to Month 24): 0.23 (0.15)
- WM MTR, LS mean (SE) change (subjects with RRMS [3]; Baseline to Month 24): 0.27 (0.16)
- Average MTR of T2 lesions, treatment difference (95% CI) (subjects with RRMS [3]; Baseline to Month 24): 0.53 (−0.23, 1.28) p = 0.168
- GM MTR, treatment difference (95% CI) (subjects with RRMS [3]; Baseline to Month 24): 0.47 (0.04, 0.90) p = 0.034
- NABT MTR, treatment difference (95% CI) (subjects with RRMS [3]; Baseline to Month 24): 0.50 (0.10, 0.89) p = 0.015
- WM MTR, treatment difference (95% CI) (subjects with RRMS [3]; Baseline to Month 24): 0.53 (0.13, 0.94) p = 0.011
- Average MTR of T2 lesions, LS mean (SE) change (subjects with RRMS [3]; Month 12 to Month 24): 0.07 (0.24)
- GM MTR, LS mean (SE) change (subjects with RRMS [3]; Month 12 to Month 24): −0.16 (0.15)
- NABT MTR, LS mean (SE) change (subjects with RRMS [3]; Month 12 to Month 24): −0.08 (0.14)
- WM MTR, LS mean (SE) change (subjects with RRMS [3]; Month 12 to Month 24): −0.05 (0.13)
- Average MTR of T2 lesions, treatment difference (95% CI) (subjects with RRMS [3]; Month 12 to Month 24): 0.15 (−0.51, 0.81) p = 0.651
- GM MTR, treatment difference (95% CI) (subjects with RRMS [3]; Month 12 to Month 24): 0.06 (−0.37, 0.49) p = 0.787
- NABT MTR, treatment difference (95% CI) (subjects with RRMS [3]; Month 12 to Month 24): 0.10 (−0.31, 0.50) p = 0.642
- WM MTR, treatment difference (95% CI) (subjects with RRMS [3]; Month 12 to Month 24): 0.13 (−0.24, 0.51) p = 0.486

Reference: patent US20160296511A1, “LAQUINIMOD FOR REDUCING THALAMIC DAMAGE IN MULTIPLE SCLEROSIS” (Teva Pharmaceutical Industries, Ltd., priority 2012, published 2016)
